“And” between values parts separate entries of the source, which are not always exact repeats. Equal entries are not always repeated.
How the values were obtained:
[1] = test system: A/WSN/33 virus; test: Influenza A viral growth assay (viral titer of culture media); type: cell-based, influenza A H1N1 virus; conditions: A/WSN/33 (WSN), 12.5uM; for viral titer of culture media, ave: average of #1-3 exp (n=9); for viral titer of culture media, individual replicate: replicates of #1-3 exp
[2] = test system: A/PR/8/34 virus; test: as above; type: cell-based, influenza A H1N1 virus; parameters: viral titer of culture media, individual replicate / viral titer of culture media, ave: unit not given here; conditions: A/PR/8/34 (PR8), 12.5uM; for viral titer of culture media, ave: average of #1-3 exp (n=9); for viral titer of culture media, individual replicate: replicates of #1-3 exp
[3] = test system: MDCK cells; test: MTT assay (cytotoxicity against MDCK cells); type: cell-based, canine; conditions: MDCK cells; for MTT, DMSO as 100 (DMSOを 100として), ave / MTT 72h AVE (DMSO = 100): 72h; for MTT, DMSO as 100 (DMSOを 100として), ave: mean of 5 wells (200409 #1 and #3); for MTT 72h AVE (DMSO = 100): summary AVE; for MTT 24h, AVE (DMSO as 100) / MTT 24h, 570-650nm, DMSO as 100, ave: mean of 5 wells from 3 experiments; for MTT 24h, AVE (DMSO as 100): relative to DMSO = 100; for MTT 24h, 570-650nm, DMSO as 100, single replicate: individual wells (200331; 200403 #2 1,2; 200403 #3 1,2); for 570-650nm (MTT absorbance, single wells) / 570-650nm ave (mean MTT absorbance of 5 wells) / MTT absorbance with DMSO as 100 (DMSOを 100として), single wells: MTT 72h; for 570-650nm (MTT absorbance, single wells): experiments #1-#3, duplicate wells; for MTT absorbance with DMSO as 100 (DMSOを 100として), single wells: relative to mean of DMSO
Procedure: 1–5 (0.8–100 μM) were prepared in DMSO (100 μM, 1%; 50 μM, 0.5%; 25 μM, 0.25%; 12.5 μM, 0.125%; 6.3 μM, 0.063%; 3.1 μM, 0.031%; 1.6 μM, 0.016%; 0.8 μM, 0.008%) and mixed with infection medium (DMEM supplemented with 1% bovine serum albumin (BSA; Wako), P/S and 4 mM L-glutamine). The resulting mixture was added to the cells and incubated for 24 or 72 h at 37°C in the presence of 5% CO2. After incubation, cell viability was determined using an MTT cell count kit (Nacalai Tesque) according to the manufacturer’s instructions, as previously described.

SMILES: C=C[C@]1(C)CC[C@H](C(=C)C)[C@@H](c2ccc(O)cc2)C1 [(1R,3R,4R)-cyclobakuchiol A]
- viral titer of culture media, ave ([1]; 12h): 10300
- viral titer of culture media, individual replicate ([1]; 12h): 300 and 1400 and 1000 and 40000 and 10000 (5×)
- viral titer of culture media, ave ([1]; 24h): 22944444
- viral titer of culture media, individual replicate ([1]; 24h): 2600000 and 3900000 and 1000000 and 60000000 and 10000000 and 9000000 and 20000000 and 30000000 and 70000000
- viral titer of culture media, ave ([1]; 48h): 177111111
- viral titer of culture media, individual replicate ([1]; 48h): 50000000 and 54000000 and 10000000 and 210000000 (2×) and 230000000 and 190000000 and 380000000 and 260000000
- viral titer of culture media, ave ([1]; 72h): 106555556
- viral titer of culture media, individual replicate ([1]; 72h): 10000000 (2×) and 7000000 and 200000000 and 150000000 (2×) and 60000000 and 330000000 and 42000000
- viral titer of culture media, ave ([2]; 12h): 31111.1
- viral titer of culture media, individual replicate ([2]; 12h): 90000 and 60000 and 30000 (2×) and 10000 (3×) and 20000 (2×)
- viral titer of culture media, ave ([2]; 24h): 25555.6
- viral titer of culture media, individual replicate ([2]; 24h): 40000 and 30000 (3×) and 10000 (3×) and 50000 and 20000
- viral titer of culture media, ave ([2]; 48h): 28888.9
- viral titer of culture media, individual replicate ([2]; 48h): 50000 (2×) and 30000 (2×) and 10000 (2×) and 20000 (2×) and 40000
- viral titer of culture media, ave ([2]; 72h): 20000
- viral titer of culture media, individual replicate ([2]; 72h): 10000 (6×) and 50000 and 30000 and 40000

SMILES: C=C[C@]1(C)CC[C@H](C(C)(C)O)[C@@H](c2ccc(O)cc2)C1 [(1R,3R,4R)-cyclobakuchiol C]
- viral titer of culture media, ave ([1]; 12h): 8288.89
- viral titer of culture media, individual replicate ([1]; 12h): 3000 and 1000 and 600 and 10000 (5×) and 20000
- viral titer of culture media, ave ([1]; 24h): 21277778
- viral titer of culture media, individual replicate ([1]; 24h): 1600000 and 1000000 and 900000 and 30000000 (2×) and 21000000 and 9000000 and 70000000 and 28000000
- viral titer of culture media, ave ([1]; 48h): 246888889
- viral titer of culture media, individual replicate ([1]; 48h): 100000000 and 150000000 and 62000000 and 140000000 and 350000000 (2×) and 410000000 and 280000000 and 380000000
- viral titer of culture media, ave ([1]; 72h): 155211111
- viral titer of culture media, individual replicate ([1]; 72h): 10000000 and 20000000 and 6900000 and 130000000 and 170000000 and 230000000 (2×) and 300000000 (2×)
- viral titer of culture media, ave ([2]; 12h): 33333.3
- viral titer of culture media, individual replicate ([2]; 12h): 40000 and 60000 (2×) and 30000 (2×) and 10000 (3×) and 50000
- viral titer of culture media, ave ([2]; 24h): 52222.2
- viral titer of culture media, individual replicate ([2]; 24h): 190000 and 20000 and 90000 and 10000 (3×) and 70000 and 40000 and 30000
- viral titer of culture media, ave ([2]; 48h): 37777.8
- viral titer of culture media, individual replicate ([2]; 48h): 50000 (2×) and 20000 and 80000 and 10000 (3×) and 40000 and 70000
- viral titer of culture media, ave ([2]; 72h): 43333.3
- viral titer of culture media, individual replicate ([2]; 72h): 40000 and 20000 (2×) and 90000 and 10000 (2×) and 50000 and 70000 and 80000

SMILES: C=C[C@]1(C)CC[C@@H](C(C)(C)O)[C@H](c2ccc(O)cc2)C1 [Cyclo. D]
- MTT, DMSO as 100 (DMSOを 100として), ave ([3]; 0.78uM): 98.8071
- MTT, DMSO as 100 (DMSOを 100として), ave ([3]; 1.56uM): 117.006
- MTT, DMSO as 100 (DMSOを 100として), ave ([3]; 3.125uM): 147.657
- MTT 72h AVE (DMSO = 100) ([3]; 6.25 (uM)): 128.371
- MTT 72h AVE (DMSO = 100) ([3]; 12.5 (uM)): 127.934
- MTT 72h AVE (DMSO = 100) ([3]; 25 (uM)): 145.717
- MTT 72h AVE (DMSO = 100) ([3]; 50 (uM)): 126.261
- MTT 72h AVE (DMSO = 100) ([3]; 100 (uM)): 126.655
- MTT 24h, AVE (DMSO as 100) ([3]; 0.78 uM): 97.8994
- MTT 24h, AVE (DMSO as 100) ([3]; 1.56 uM): 96.8321
- MTT 24h, 570-650nm, DMSO as 100, single replicate ([3]; 3.125uM): 84.6917 and 82.6734 and 92.4491 and 113.857 and 84.268
- MTT 24h, 570-650nm, DMSO as 100, ave ([3]; 3.125uM): 91.5878
- MTT 24h, 570-650nm, DMSO as 100, single replicate ([3]; 6.25uM): 85.6335 and 89.7131 and 106.9 and 111.896 and 88.988
- MTT 24h, 570-650nm, DMSO as 100, ave ([3]; 6.25uM): 96.6263
- MTT 24h, 570-650nm, DMSO as 100, single replicate ([3]; 12.5uM): 81.4488 and 91.9219 and 102.896 and 113.782 and 96.5227
- MTT 24h, 570-650nm, DMSO as 100, ave ([3]; 12.5uM): 97.3142
- MTT 24h, 570-650nm, DMSO as 100, single replicate ([3]; 25uM): 77.2963 and 96.4082 and 113.294 and 115.224 and 87.3126
- MTT 24h, 570-650nm, DMSO as 100, ave ([3]; 25uM): 97.9071
- MTT 24h, 570-650nm, DMSO as 100, single replicate ([3]; 50uM): 91.2134 and 100.963 and 94.7794 and 115.361 and 101.24
- MTT 24h, 570-650nm, DMSO as 100, ave ([3]; 50uM): 100.712
- MTT 24h, 570-650nm, DMSO as 100, single replicate ([3]; 100uM): 94.6456 and 103.228 and 107.83 and 131.616 and 116.582
- MTT 24h, 570-650nm, DMSO as 100, ave ([3]; 100uM): 110.78
- 570-650nm (MTT absorbance, single wells) ([3]; 0.78uM): 0.4378 and 0.7486 and 0.8741 and 0.5119 and 0.7887 and 0.8621
- 570-650nm (MTT absorbance, single wells) ([3]; 3.13uM (3.125uM in summary block)): 0.9735 and 1.011 and 0.8858 and 1.0444 and 0.9175 and 1.1144
- 570-650nm ave (mean MTT absorbance of 5 wells) ([3]; 6.25uM): 0.8781
- MTT absorbance with DMSO as 100 (DMSOを 100として), single wells ([3]; 6.25uM): 79.8684 and 128.626 and 158.904 and 136.433 and 138.026
- 570-650nm ave (mean MTT absorbance of 5 wells) ([3]; 12.5uM): 1.0183
- 570-650nm (MTT absorbance, single wells) ([3]; 12.5uM): 0.9745 and 1.0068 and 0.9175 and 1.0063 and 1.0002 and 1.1607
- MTT absorbance with DMSO as 100 (DMSOを 100として), single wells ([3]; 12.5uM): 126.426 and 115.27 and 145.824 and 125.66 and 126.489
- 570-650nm ave (mean MTT absorbance of 5 wells) ([3]; 25uM): 1.096
- 570-650nm (MTT absorbance, single wells) ([3]; 25uM): 1.0789 and 1.1027 and 0.9947 and 1.0822 and 1.1213 and 1.1788
- MTT absorbance with DMSO as 100 (DMSOを 100として), single wells ([3]; 25uM): 143.89 and 132.256 and 156.734 and 149.089 and 146.616
- 570-650nm ave (mean MTT absorbance of 5 wells) ([3]; 50uM): 1.152
- 570-650nm (MTT absorbance, single wells) ([3]; 50uM): 1.148 and 1.1434 and 1.0891 and 1.1437 and 1.0821 and 1.3031
- MTT absorbance with DMSO as 100 (DMSOを 100として), single wells ([3]; 50uM): 125.321 and 119.338 and 142.787 and 118.571 and 125.288
- 570-650nm ave (mean MTT absorbance of 5 wells) ([3]; 100uM): 1.192
- 570-650nm (MTT absorbance, single wells) ([3]; 100uM): 1.3579 and 1.2781 and 1.2394 and 0.9368 and 1.1592 and 1.3488
- MTT absorbance with DMSO as 100 (DMSOを 100として), single wells ([3]; 100uM): 99.5008 and 131.641 and 143.261 and 123.123 and 135.751

Reference: publication PMC7997032, “Organic synthesis and anti-influenza A virus activity of cyclobakuchiols A, B, C, and D” (PLoS ONE, 2021)
